Assay results as given in US8362236B2, “Macrocyclic compound” (Chugai Seiyaku Kabushiki Kaisha, priority 2007, dated 2013).
Several values for one entry are separate records, joined by “and”; a condition that tells them apart may be missing. Equal entries are not always repeated. Where two headings read alike, the source gives them in different places.

Key:
[1] = biological target: T1, Human HSP90 alpha (Homo sapiens, UniProt P07900); experiment: Assay for the activity of inhibiting HSP90 enzyme (ATPase, malachite green); format: biochemical; conditions: purified human HSP90 alpha, 1 mM ATP added, 37° C. for two hours, OD655
T1 construct: His tag (inferred from purification on a HisPrep FF column); made in house; host or cells: E. coli BL21 codon plus (Stratagene)
Protocol: Introduction of pETHuHSP90a into E. coli (BL21 codon plus; Stratagene) was followed by O/N incubation in the presence of 0.1 mM IPTG, and the collected E. coli cells were disrupted by ultrasonication in a Lysis buffer (50 mM Tris-HCl (pH8.0), 10 mM MgCl2, 0.1% Triton X-100, Protease inhibitor cocktail tablets (Roche Diagnostics)). The cell lysate solution was centrifuged (10,000 rpm×30 minutes), and the supernatant obtained after centrifugation was used as a crude extract. The crude extract was fractionated using HisPrep FF column and HiTrap Q column (Amersham) to prepare a purified enzyme solution.
An enzyme solution for assays was prepared by dilution of the purified enzyme solution using an assay buffer (50 mM Tris HCl pH7.6, 20 mM KCl, 5 mM MgCl2).
10 μL each of various concentrations of the test substances (10% DMSO solution) was added to each well, and for the positive control wells, 10 μL of 10% DMSO was added. 10 μL of 10% DMSO was also added to the negative control well.
10 μL of 1 mM ATP was added to all of the wells, and the reaction was carried out at 37° C. for two hours.

[2] = test system: HCT116 cells; experiment: Measurement of cell growth inhibition (Cell Counting Kit-8, four days); conditions: Homo sapiens, HCT-116, 96 h, read-out: Cell growth-inhibiting activity (IC50, μM) Colon cancer HCT116, HCT116 colon cancer cell line, four days culture;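 note: cells exposed to a range of test concentrations at 37 °C in 5% CO2 for four days, then growth read as absorbance with Cell Counting Kit-8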
Protocol: Cells were maintained under conditions recommended by the provider of each cell line. Cells suspended in a medium were added to solutions containing various concentrations of the test substance, and the cells were cultured at 37° C. in a 5% CO2 incubator. Four days later, Cell Counting Kit-8 was added, and absorbance measurements were taken following the protocol included in the kit.

[3] = read-out: Enzyme-inhibiting activity (IC50, μM) Human HSP90α

For `Cc1cc(C)c2cc1C(=O)NCCC[C@@H](C(=O)NCCO)NC(=O)CCSc1cc-2nc(N)n1` [Compound 46, (S)-4-amino-19,21-dimethyl-10,17-dioxo-7-thia-3,5,11,16-tetraazatricyclo[16.3.1.1^2,6]tricosa-1(21),2,4,6(23),18(22),19-hexaene-12-carboxylic acid (2-hydroxyethyl)amide], the IC50 [1, 3] was 1.1 µM and the IC50 [2] was > 10 µM.
In the case of `Cc1cc(C)c2cc1C(=O)NCCC[C@@H](C(=O)NCC(O)CO)NC(=O)CCSc1cc-2nc(N)n1` (stereo partly drawn) [Compound 48, (S)-4-amino-19,21-dimethyl-10,17-dioxo-7-thia-3,5,11,16-tetraazatricyclo[16.3.1.1^2,6]tricosa-1(21),2,4,6(23),18(22),19-hexaene-12-carboxylic acid (2,3-dihydroxypropyl) amide], the IC50 [1, 3] is reported as 0.8 µM and the IC50 [2] is reported as > 10 µM.
In the case of `COC(=O)[C@@H]1CCNC(=O)CCSc2cc(nc(N)n2)-c2cc(c(C)cc2C)C(=O)N1` [Compound 63, (S)-4-amino-18,20-dimethyl-10,16-dioxo-7-thia-3,5,11,15-tetraazatricyclo[15.3.1.1^2,6]docosa-1(20),2(22),3,5,17(21),18-hexaene-14-carboxylic acid methyl ester], the IC50 [1, 3] is reported as 2.8 µM and the IC50 [2] is reported as 0.2 µM.
In the case of `CNC(=O)[C@@H]1CCNC(=O)CCSc2cc(nc(N)n2)-c2cc(c(C)cc2C)C(=O)N1` [Compound 65, (S)-4-amino-18,20-dimethyl-10,16-dioxo-7-thia-3,5,11,15-tetraazatricyclo[15.3.1.1^2,6]docosa-1(20),2(22),3,5,17(21),18-hexaene-14-carboxylic acid methylamide], the IC50 [1, 3] is reported as 2.8 µM and the IC50 [2] is reported as 9 µM.
`COCCNC(=O)[C@@H]1CCNC(=O)CCSc2cc(nc(N)n2)-c2cc(c(C)cc2C)C(=O)N1` [Compound 66, (S)-4-amino-18,20-dimethyl-10,16-dioxo-7-thia-3,5,11,15-tetraazatricyclo[15.3.1.1^2,6]docosa-1(20),2(22),3,5,17(21),18-hexaene-14-carboxylic acid (2-methoxyethyl) amide] was tested, and the IC50 [1, 3] was 2.5 µM and the IC50 [2] was > 10 µM.
In the case of `Cc1cc(C)c2cc1C(=O)N[C@H](C(=O)N(C)C)CCNC(=O)CCSc1cc-2nc(N)n1` [Compound 67, (S)-4-amino-18,20-dimethyl-10,16-dioxo-7-thia-3,5,11,15-tetraazatricyclo[15.3.1.1^2,6]docosa-1(20),2(22),3,5,17(21),18-hexaene-14-carboxylic acid dimethylamide], the IC50 [1, 3] is reported as 5.5 µM and the IC50 [2] is reported as > 5 µM.
`Cc1cc(C)c2cc1C(=O)N[C@H](CO)CCNC(=O)CCSc1cc-2nc(N)n1` [Compound 68, (S)-4-amino-14-hydroxymethyl-18,20-dimethyl-7-thia-3,5,11,15-tetraazatricyclo[15.3.1.1^2,6]docosa-1(20),2(22),3,5,17(21),18-hexaene-10,16-dione] gave an IC50 [1, 3] of 1.7 µM and an IC50 [2] of 7.1 µM.
`COC(=O)[C@H]1CCNC(=O)c2cc(c(C)cc2C)-c2cc(nc(N)n2)SCCC(=O)N1` [Compound 69, (R)-4-amino-18,20-dimethyl-10,16-dioxo-7-thia-3,5,11,15-tetraazatricyclo[15.3.1.1^2,6]docosa-1(20),2,4,6(22),17(21),18-hexaene-12-carboxylic acid methyl ester] was tested, and the IC50 [1, 3] was 2.9 µM and the IC50 [2] was 3.2 µM.
For `Cc1cc(C)c2cc1C(=O)NCC[C@@H](C(=O)N1CCOCC1)NC(=O)CCSc1cc-2nc(N)n1` [Compound 70, (S)-4-amino-18,20-dimethyl-12-(morpholine-4-carbonyl)-7-thia-3,5,11,15-tetraazatricyclo[15.3.1.1^2,6]docosa-1(20),2,4,6(22),17(21),18-hexaene-10,16-dione], the IC50 [1, 3] was 2.7 µM and the IC50 [2] was > 10 µM.
With `Cc1cc(C)c2cc1C(=O)NCC[C@@H](CN1CCOCC1)NC(=O)CCSc1cc-2nc(N)n1` [Compound 71, (S)-4-amino-18,20-dimethyl-12-morpholin-4-ylmethyl-7-thia-3,5,11,15-tetraazatricyclo[15.3.1.1^2,6]docosa-1(20),2(22),3,5,17(21),18-hexaene-10,16-dione] the IC50 [1, 3] was 2.9 µM and the IC50 [2] was 9.1 µM.
Work on `Cc1cc(C)c2cc1C(=O)NCC1(CNC(=O)CCSc3cc-2nc(N)n3)COC1` [Compound 72] yielded an IC50 [1, 3] of 2.2 µM and an IC50 [2] of 1 µM.
Work on `Cc1cc(C)c2cc1C(=O)NCCC(N)C(=O)NCCSc1cc-2nc(N)n1` (centres unmarked) [Compound 73, 4,12-diamino-18,20-dimethyl-7-thia-3,5,10,15-tetraazatricyclo[15.3.1.1^2,6]docosa-1(20),2(22),3,5,17(21),18-hexaene-11,16-dione] yielded an IC50 [1, 3] of 2.3 µM and an IC50 [2] of 0.5 µM.
Compound `CC(=O)NC1CCNC(=O)c2cc(c(C)cc2C)-c2cc(nc(N)n2)SCCNC1=O` (centres unmarked) [Compound 74, N-(4-amino-18,20-dimethyl-10,16-dioxo-7-thia-3,5,10,15-tetraazatricyclo[15.3.1.1^2,6]docosa-1(20),2(22),3,5,17(21),18-hexaen-12-yl)acetamide] has an IC50 [1, 3] of 2.3 µM and an IC50 [2] of 5.7 µM.
In the case of `Cc1cc(C)c2cc1C(=O)NCCC(NC(=O)C(F)(F)F)C(=O)NCCSc1cc-2nc(N)n1` (centres unmarked) [Compound 75, N-(4-amino-18,20-dimethyl-11,16-dioxo-7-thia-3,5,10,15-tetraazatricyclo[15.3.1.1^2,6]docosa-1(20),2(22),3,5,17(21),18-hexaen-12-yl)-2,2,2-trifluoroacetamide], the IC50 [1, 3] is reported as 1.9 µM and the IC50 [2] is reported as 0.5 µM.
For `Cc1cc(C)c2cc1C(=O)NCCC(NC(=O)[C@H](N)C(C)C)C(=O)NCCSc1cc-2nc(N)n1` (some centres unmarked) [Compound 76], the IC50 [1, 3] was 4.3 µM and 6.2 µM and the IC50 [2] was 5 µM.
`Cc1cc(C)c2cc1C(=O)NCCC(NC(=O)[C@H](N)Cc1ccc(O)cc1)C(=O)NCCSc1cc-2nc(N)n1` (some centres unmarked) [Compound 77] was tested, and the IC50 ([1]; Enzyme-inhibiting activity (IC50, μM) Human HSP90α) was 5 µM and 3.4 µM and the IC50 [2] was 6.5 µM.
In the case of `Cc1cc(C)c2cc1C(=O)NCCC(N(C)C)C(=O)NCCSc1cc-2nc(N)n1` (centres unmarked) [Compound 78, 4-amino-12-dimethylamino-18,20-dimethyl-7-thia-3,5,10,15-tetraazatricyclo[15.3.1.1^2,6]docosa-1(20),2(22),3,5,17(21),18-hexaene-11,16-dione], the IC50 [1, 3] is reported as 2.8 µM and the IC50 [2] is reported as 0.5 µM.
`Cc1cc(C)c2cc1C(=O)NCCCC(=O)N(CCO)CCSc1cc-2nc(N)n1` [Compound 79, 4-amino-10-(2-hydroxyethyl)-18,20-dimethyl-7-thia-3,5,10,15-tetraazatricyclo[15.3.1.1^2,6]docosa-1(20),2(22),3,5,17(21),18-hexaene-11,16-dione] was tested, and the IC50 [1, 3] was 3 µM and the IC50 [2] was 0.4 µM.
`COCCN1CCSc2cc(nc(N)n2)-c2cc(c(C)cc2C)C(=O)NCCCC1=O` [Compound 80, 4-amino-10-(2-methoxyethyl)-18,20-dimethyl-7-thia-3,5,10,15-tetraazatricyclo[15.3.1.1^2,6]docosa-1(20),2(22),3,5,17(21),18-hexaene-11,16-dione] was tested, and the IC50 [1, 3] was 2.5 µM and the IC50 [2] was 0.2 µM.
With `Cc1cc(C)c2cc1C(=O)NCCCC(=O)N(CCN1CCOCC1)CCSc1cc-2nc(N)n1` [Compound 81, 4-amino-10-(2-morpholin-4-ylethyl)-18,20-dimethyl-7-thia-3,5,10,15-tetraazatricyclo[15.3.1.1^2,6]docosa-1(20),2(22),3,5,17(21),18-hexaene-11,16-dione] the IC50 [1, 3] was 3 µM and the IC50 [2] was 1.1 µM.
With `Cc1cc(C)c2cc1C(=O)NCCCC(=O)N(C)CCSc1cc-2nc(N)n1` [Compound 82, 4-amino-10,18,20-trimethyl-7-thia-3,5,10,15-tetraazatricyclo[15.3.1.1^2,6]docosa-1(20),2(22),3,5,17(21),18-hexaene-11,16-dione] the IC50 [1, 3] was 2.5 µM and the IC50 [2] was 0.2 µM.
In the case of `Cc1cc(C)c2cc1C1=N[C@@H](CCNC(=O)CCSc3cc-2nc(N)n3)CO1` [Compound 83, (S)-4-amino-19,21-dimethyl-10-oxo-7-thia-16-oxa-3,5,11,24-tetraazatetracyclo[16.3.1.1^2,6.1^7,10]tetracosa-1(22),2(23),3,5,17(24),19,21-heptaen-10-one], the IC50 [1, 3] is reported as 2.8 µM and the IC50 [2] is reported as 0.4 µM.
